Values belong to the compound of their own block, whether it stands above or below them.
Experiments:
Assay in all cases: Reaction Biology HotSpot kinase assay
Format in all cases: biochemical
IR = IR (Homo sapiens (Human), UniProt P06213); details: 500 nM compound; for inhibition at 0.5 µM: read-out: Percentage kinase inhibition IR
Procedure, shortened: (§1)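 Buffer 20 mM HEPES pH 7.5 / 10 mM MgCl2 / 1 mM EGTA / 0.02% Brij35 / 0.02 mg/mL BSA / 0.1 mM Na3VO4 / 2 mM DTT / 1% DMSO. Cpd 500 nM, 20 min. [γ-33P]ATP mix at 100 μM, 2 h RT. P81 spotting; % activity remaining vs DMSO.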

LRRK2 = LRRK2 (Homo sapiens (Human), UniProt Q5S007); details: 500 nM compound; for inhibition at 0.5 µM: read-out: Percentage kinase inhibition LRRK2
LRRK2, sequence (Q5S007 whole entry): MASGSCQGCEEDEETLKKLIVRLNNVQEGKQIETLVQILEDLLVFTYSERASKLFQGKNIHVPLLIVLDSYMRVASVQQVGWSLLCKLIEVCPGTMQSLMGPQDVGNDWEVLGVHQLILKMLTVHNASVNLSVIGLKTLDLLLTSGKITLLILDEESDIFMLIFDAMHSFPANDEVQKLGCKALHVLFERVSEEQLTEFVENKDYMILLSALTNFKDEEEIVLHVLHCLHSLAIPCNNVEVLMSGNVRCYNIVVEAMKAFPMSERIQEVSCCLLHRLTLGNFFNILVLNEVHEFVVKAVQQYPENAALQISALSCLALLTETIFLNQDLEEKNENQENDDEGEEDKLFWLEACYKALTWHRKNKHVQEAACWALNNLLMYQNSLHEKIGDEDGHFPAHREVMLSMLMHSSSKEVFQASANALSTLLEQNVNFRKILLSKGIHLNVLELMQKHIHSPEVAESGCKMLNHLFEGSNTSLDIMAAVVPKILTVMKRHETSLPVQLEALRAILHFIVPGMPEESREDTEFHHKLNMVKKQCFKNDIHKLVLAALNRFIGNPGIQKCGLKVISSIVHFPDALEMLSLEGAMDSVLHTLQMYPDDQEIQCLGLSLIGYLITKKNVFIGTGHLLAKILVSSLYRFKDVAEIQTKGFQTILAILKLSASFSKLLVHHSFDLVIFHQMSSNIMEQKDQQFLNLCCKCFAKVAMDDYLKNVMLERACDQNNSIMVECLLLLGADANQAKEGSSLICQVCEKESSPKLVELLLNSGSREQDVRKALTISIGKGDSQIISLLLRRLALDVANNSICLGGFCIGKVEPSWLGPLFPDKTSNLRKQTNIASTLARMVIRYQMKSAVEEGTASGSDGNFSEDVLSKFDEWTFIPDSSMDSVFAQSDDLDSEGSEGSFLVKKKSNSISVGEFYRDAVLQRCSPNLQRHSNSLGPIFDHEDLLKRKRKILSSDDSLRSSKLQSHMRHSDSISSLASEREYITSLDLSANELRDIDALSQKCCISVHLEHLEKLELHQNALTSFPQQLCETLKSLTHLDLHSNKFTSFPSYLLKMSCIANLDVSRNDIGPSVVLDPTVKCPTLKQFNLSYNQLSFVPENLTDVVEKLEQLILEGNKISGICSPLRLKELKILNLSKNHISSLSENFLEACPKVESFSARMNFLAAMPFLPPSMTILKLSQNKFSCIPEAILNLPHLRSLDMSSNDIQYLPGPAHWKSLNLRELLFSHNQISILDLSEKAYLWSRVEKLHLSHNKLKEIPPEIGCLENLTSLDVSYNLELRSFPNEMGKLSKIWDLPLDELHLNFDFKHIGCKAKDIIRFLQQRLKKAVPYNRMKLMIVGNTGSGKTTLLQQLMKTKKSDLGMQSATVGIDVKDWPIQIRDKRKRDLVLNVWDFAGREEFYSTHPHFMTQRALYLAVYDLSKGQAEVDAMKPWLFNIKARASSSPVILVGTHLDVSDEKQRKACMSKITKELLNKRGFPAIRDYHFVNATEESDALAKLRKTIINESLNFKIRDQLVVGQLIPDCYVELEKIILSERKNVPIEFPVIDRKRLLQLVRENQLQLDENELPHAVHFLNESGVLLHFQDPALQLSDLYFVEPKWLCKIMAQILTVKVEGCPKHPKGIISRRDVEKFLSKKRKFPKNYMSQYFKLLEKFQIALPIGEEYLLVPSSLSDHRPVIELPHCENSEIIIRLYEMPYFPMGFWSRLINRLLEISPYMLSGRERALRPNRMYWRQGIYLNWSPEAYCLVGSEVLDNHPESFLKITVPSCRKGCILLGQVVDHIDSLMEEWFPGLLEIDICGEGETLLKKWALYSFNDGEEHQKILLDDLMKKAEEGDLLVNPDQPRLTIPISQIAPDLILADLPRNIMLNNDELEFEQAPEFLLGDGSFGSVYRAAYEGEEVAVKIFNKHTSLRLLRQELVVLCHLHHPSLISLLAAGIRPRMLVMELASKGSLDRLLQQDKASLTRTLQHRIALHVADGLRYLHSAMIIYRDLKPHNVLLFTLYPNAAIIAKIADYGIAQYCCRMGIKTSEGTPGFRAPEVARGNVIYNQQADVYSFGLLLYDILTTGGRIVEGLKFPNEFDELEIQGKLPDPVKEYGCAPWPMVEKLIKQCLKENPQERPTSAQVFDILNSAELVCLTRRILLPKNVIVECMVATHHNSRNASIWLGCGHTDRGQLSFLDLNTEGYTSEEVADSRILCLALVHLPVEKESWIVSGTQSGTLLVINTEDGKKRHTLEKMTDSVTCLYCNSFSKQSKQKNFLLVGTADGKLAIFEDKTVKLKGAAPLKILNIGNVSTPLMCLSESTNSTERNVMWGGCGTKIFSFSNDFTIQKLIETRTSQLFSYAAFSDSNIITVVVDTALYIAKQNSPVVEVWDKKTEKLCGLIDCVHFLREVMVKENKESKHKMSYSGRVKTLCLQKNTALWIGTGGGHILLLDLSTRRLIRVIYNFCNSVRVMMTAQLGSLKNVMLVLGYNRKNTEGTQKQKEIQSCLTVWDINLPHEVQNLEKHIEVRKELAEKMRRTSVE
Procedure, shortened: as §1

TRKC = TRKC (Homo sapiens (Human), UniProt Q16288); details: 500 nM compound, 100 μM radiolabeled ATP
Procedure, shortened: (§2)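 Compounds were screened at one concentration, 500 nM, in a radiometric kinase reaction. After a 20-minute preincubation with enzyme and substrate in pH 7.5 HEPES buffer (1% DMSO), the mixture received 100 μM ATP containing [γ-33P]ATP and was left 2 h at room temperature.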

LYN B = LYN B (Homo sapiens (Human), UniProt P07948); details: 500 nM compound; for inhibition at 0.5 µM: read-out: Percentage kinase inhibition LYN B
Procedure, shortened: as §1

RET = RET (Homo sapiens (Human), UniProt P07949); details: 500 nM compound; for inhibition at 0.5 µM: read-out: Percentage kinase inhibition RET
Procedure, shortened: as §1

ERK1 = ERK1 (Homo sapiens (Human), UniProt P27361); details: 500 nM compound; for inhibition at 0.5 µM: read-out: Percentage kinase inhibition ERK1
ERK1, sequence (P27361 whole entry): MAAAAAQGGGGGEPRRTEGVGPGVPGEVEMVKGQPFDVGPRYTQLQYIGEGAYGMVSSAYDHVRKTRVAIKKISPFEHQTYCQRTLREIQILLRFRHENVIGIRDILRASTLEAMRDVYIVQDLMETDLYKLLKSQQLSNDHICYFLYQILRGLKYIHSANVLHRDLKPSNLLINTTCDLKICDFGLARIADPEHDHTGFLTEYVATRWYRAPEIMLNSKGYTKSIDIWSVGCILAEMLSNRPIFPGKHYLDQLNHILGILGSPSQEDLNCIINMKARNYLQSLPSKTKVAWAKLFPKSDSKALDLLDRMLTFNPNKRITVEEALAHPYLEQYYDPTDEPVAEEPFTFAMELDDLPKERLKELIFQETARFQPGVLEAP
Procedure, shortened: as §1

RSK2 = RSK2 (Homo sapiens (Human), UniProt P51812); details: 500 nM compound; for inhibition at 0.5 µM: read-out: Percentage kinase inhibition RSK2
Procedure, shortened: as §1

DDR2 = DDR2 (Homo sapiens (Human), UniProt Q16832); details: 500 nM compound; for inhibition at 0.5 µM: read-out: Percentage kinase inhibition DDR2
Procedure, shortened: as §1

TGFBR2 = TGFBR2 (Homo sapiens (Human), UniProt P37173); details: 500 nM compound; for inhibition at 0.5 µM: read-out: Percentage kinase inhibition TGFBR2
Procedure, shortened: as §1

IKKa/CHUK = IKKa/CHUK (Homo sapiens (Human), UniProt O15111); details: 500 nM compound; for inhibition at 0.5 µM: read-out: Percentage kinase inhibition IKKa/CHUK
Procedure, shortened: as §1

RAF1 = details: 500 nM compound
Procedure, shortened: as §1

CDK1/cyclin E = CDK1/cyclin E (Homo sapiens (Human), UniProt P06493); details: 500 nM compound; for inhibition at 0.5 µM: read-out: Percentage kinase inhibition CDK1/cyclin E
Procedure, shortened: as §1

HCK = HCK (Homo sapiens (Human), UniProt P08631); details: 500 nM compound; for inhibition at 0.5 µM: read-out: Percentage kinase inhibition HCK
Procedure, shortened: as §1

TYK2 = TYK2 (Homo sapiens (Human), UniProt P29597); details: 500 nM compound; for inhibition at 0.5 µM: read-out: Percentage kinase inhibition TYK2
Procedure, shortened: as §1

CDK9/cyclin T2 = CDK9/cyclin T2 (Homo sapiens (Human), UniProt P50750); details: 500 nM compound; for inhibition at 0.5 µM: read-out: Percentage kinase inhibition CDK9/cyclin T2
Procedure, shortened: as §1

KSR1 = KSR1 (Homo sapiens (Human), UniProt Q8IVT5); details: 500 nM compound; for inhibition at 0.5 µM: read-out: Percentage kinase inhibition KSR1
Procedure, shortened: as §1

P38a/MAPK14 = P38a/MAPK14 (Homo sapiens (Human), UniProt Q16539); details: 500 nM compound; for inhibition at 0.5 µM: read-out: Percentage kinase inhibition P38a/MAPK14
P38a/MAPK14, sequence (Q16539 whole entry): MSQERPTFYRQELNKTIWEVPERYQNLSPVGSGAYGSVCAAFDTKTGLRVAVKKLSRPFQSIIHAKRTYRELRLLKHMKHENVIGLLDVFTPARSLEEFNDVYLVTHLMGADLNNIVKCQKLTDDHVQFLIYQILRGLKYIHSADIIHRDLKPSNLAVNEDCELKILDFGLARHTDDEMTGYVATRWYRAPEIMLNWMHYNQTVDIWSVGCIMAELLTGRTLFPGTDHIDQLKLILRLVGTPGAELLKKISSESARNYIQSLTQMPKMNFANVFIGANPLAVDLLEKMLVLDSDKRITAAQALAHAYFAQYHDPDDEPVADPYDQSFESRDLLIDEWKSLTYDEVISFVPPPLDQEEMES
Procedure, shortened: as §1

PIM1 = PIM1 (Homo sapiens (Human), UniProt P11309); details: 500 nM compound; for inhibition at 0.5 µM: read-out: Percentage kinase inhibition PIM1
Procedure, shortened: as §1

BRK = BRK (Homo sapiens (Human), UniProt Q13882); details: 500 nM compound; for inhibition at 0.5 µM: read-out: Percentage kinase inhibition BRK
Procedure, shortened: as §2

JAK2 = JAK2 (Homo sapiens (Human), UniProt O60674); details: 500 nM compound; for inhibition at 0.5 µM: read-out: Percentage kinase inhibition JAK2
Procedure, shortened: as §1

ERBB4/HER4 = ERBB4/HER4 (Homo sapiens (Human), UniProt Q15303); details: 500 nM compound; for inhibition at 0.5 µM: read-out: Percentage kinase inhibition ERBB4/HER4
Procedure, shortened: as §1

TAOK1 = TAOK1 (Homo sapiens (Human), UniProt Q7L7X3); details: 500 nM compound; for inhibition at 0.5 µM: read-out: Percentage kinase inhibition TAOK1
Procedure, shortened: as §1

IGF1R = IGF1R (Homo sapiens (Human), UniProt P08069); details: 500 nM compound; for inhibition at 0.5 µM: read-out: Percentage kinase inhibition IGF1R
Procedure, shortened: as §1

CSK = CSK (Homo sapiens (Human), UniProt P41240); details: 500 nM compound; for inhibition at 0.5 µM: read-out: Percentage kinase inhibition CSK
Procedure, shortened: as §1

IRR/INSRR = IRR/INSRR (Homo sapiens (Human), UniProt P14616); details: 500 nM compound; for inhibition at 0.5 µM: read-out: Percentage kinase inhibition IRR/INSRR
IRR/INSRR, sequence (P14616 27-1297): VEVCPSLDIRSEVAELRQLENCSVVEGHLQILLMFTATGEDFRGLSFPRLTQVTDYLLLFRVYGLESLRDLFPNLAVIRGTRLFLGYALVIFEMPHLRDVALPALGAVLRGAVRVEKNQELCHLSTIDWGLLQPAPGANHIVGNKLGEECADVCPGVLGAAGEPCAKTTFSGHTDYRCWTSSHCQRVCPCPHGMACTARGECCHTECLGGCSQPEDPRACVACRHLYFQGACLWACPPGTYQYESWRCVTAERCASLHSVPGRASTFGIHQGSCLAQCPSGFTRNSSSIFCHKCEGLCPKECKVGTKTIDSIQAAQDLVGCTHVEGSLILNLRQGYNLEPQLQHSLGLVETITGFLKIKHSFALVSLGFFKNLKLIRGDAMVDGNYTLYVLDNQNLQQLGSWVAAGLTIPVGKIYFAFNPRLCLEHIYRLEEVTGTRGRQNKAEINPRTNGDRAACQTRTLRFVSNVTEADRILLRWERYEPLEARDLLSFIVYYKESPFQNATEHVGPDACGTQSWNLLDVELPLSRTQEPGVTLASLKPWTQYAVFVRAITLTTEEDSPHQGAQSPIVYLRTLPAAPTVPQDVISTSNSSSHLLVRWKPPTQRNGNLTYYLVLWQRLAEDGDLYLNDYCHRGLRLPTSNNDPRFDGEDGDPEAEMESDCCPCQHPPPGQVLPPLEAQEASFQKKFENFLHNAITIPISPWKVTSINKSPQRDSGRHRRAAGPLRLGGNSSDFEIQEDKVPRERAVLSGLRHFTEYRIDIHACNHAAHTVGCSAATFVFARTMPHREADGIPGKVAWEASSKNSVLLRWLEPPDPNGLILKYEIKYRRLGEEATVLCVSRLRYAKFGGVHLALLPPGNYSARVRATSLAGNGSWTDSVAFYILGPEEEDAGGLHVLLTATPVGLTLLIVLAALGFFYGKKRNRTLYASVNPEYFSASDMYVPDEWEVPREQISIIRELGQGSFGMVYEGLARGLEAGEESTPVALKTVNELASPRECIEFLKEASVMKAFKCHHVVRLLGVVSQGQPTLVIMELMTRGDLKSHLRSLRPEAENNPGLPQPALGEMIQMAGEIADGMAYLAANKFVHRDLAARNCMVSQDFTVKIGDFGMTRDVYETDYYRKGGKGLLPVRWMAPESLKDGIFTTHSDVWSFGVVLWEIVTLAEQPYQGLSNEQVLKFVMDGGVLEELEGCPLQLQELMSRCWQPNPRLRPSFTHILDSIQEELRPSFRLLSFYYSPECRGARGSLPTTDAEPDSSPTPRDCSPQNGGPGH
Procedure, shortened: as §1

PDK1/PDHK1 = PDK1/PDHK1 (Homo sapiens (Human), UniProt Q15118); details: 500 nM compound; for inhibition at 0.5 µM: read-out: Percentage kinase inhibition PDK1/PDHK1
Procedure, shortened: as §1

MST4 = MST4 (Homo sapiens (Human), UniProt Q9P289); details: 500 nM compound; for inhibition at 0.5 µM: read-out: Percentage kinase inhibition MST4
Procedure, shortened: as §1

BLK = BLK (Homo sapiens (Human), UniProt P51451); details: 500 nM compound; for inhibition at 0.5 µM: read-out: Percentage kinase inhibition BLK
BLK, sequence (P51451 whole entry): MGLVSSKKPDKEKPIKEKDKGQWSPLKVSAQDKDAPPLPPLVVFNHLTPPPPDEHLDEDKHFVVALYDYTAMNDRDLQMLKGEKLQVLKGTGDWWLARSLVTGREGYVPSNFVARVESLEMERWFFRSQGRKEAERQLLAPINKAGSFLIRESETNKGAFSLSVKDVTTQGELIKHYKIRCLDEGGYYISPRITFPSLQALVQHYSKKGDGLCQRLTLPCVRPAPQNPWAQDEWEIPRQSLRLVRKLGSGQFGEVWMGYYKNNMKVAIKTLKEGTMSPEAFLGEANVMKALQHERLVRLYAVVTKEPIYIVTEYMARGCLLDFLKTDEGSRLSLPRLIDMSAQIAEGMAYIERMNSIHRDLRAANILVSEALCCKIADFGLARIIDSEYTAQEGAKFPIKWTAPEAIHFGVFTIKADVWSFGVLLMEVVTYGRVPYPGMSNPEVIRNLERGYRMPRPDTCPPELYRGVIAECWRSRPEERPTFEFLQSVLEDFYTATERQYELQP
Procedure, shortened: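 Each compound was tested at 500 nM, with 33P incorporation from ATP (100 μM final, including [γ-33P]ATP) measured by P81 paper capture after a 2 h room-temperature reaction.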

FAK/PTK2 = FAK/PTK2 (Homo sapiens (Human), UniProt Q05397); details: 500 nM compound; for inhibition at 0.5 µM: read-out: Percentage kinase inhibition FAK/PTK2
Procedure, shortened: as §1

CDK4/cyclin D1 = CDK4/cyclin D1 (Homo sapiens (Human), UniProt P11802); details: 500 nM compound; for inhibition at 0.5 µM: read-out: Percentage kinase inhibition CDK4/cyclin D1
Procedure, shortened: as §2

ROCK1 = ROCK1 (Homo sapiens (Human), UniProt Q13464); details: 500 nM compound; for inhibition at 0.5 µM: read-out: Percentage kinase inhibition ROCK1
Procedure, shortened: as §1

- Percentage kinase inhibition IR (IR): 9%
- Percentage kinase inhibition LRRK2 (LRRK2): 40%
- % inhibition of TrkC (TRKC): 81%
- Percentage kinase inhibition LYN B (LYN B): 0%
- Percentage kinase inhibition RET (RET): 15%
- Percentage kinase inhibition ERK1 (ERK1): 5%
- Percentage kinase inhibition RSK2 (RSK2): 7%
- Percentage kinase inhibition DDR2 (DDR2): 0%
- Percentage kinase inhibition TGFBR2 (TGFBR2): 0%
- Percentage kinase inhibition IKKa/CHUK (IKKa/CHUK): 0%
- Percentage kinase inhibition RAF1 (RAF1): 5%
- Percentage kinase inhibition CDK1/cyclin E (CDK1/cyclin E): 13%
- Percentage kinase inhibition HCK (HCK): 2%
- Percentage kinase inhibition TYK2 (TYK2): 2%
- Percentage kinase inhibition CDK9/cyclin T2 (CDK9/cyclin T2): 65%
- Percentage kinase inhibition KSR1 (KSR1): 0%
- Percentage kinase inhibition P38a/MAPK14 (P38a/MAPK14): 0%
- Percentage kinase inhibition PIM1 (PIM1): 34%
- Percentage kinase inhibition BRK (BRK): 18%
- Percentage kinase inhibition JAK2 (JAK2): 0%
- Percentage kinase inhibition ERBB4/HER4 (ERBB4/HER4): 0%
- Percentage kinase inhibition TAOK1 (TAOK1): 12%
- Percentage kinase inhibition IGF1R (IGF1R): 3%
- Percentage kinase inhibition CSK (CSK): 1%
- Percentage kinase inhibition IRR/INSRR (IRR/INSRR): 10%
- Percentage kinase inhibition PDK1/PDHK1 (PDK1/PDHK1): 0%
- Percentage kinase inhibition MST4 (MST4): 0%
- Percentage kinase inhibition BLK (BLK): 10%
- Percentage kinase inhibition FAK/PTK2 (FAK/PTK2): 6%
- Percentage kinase inhibition CDK4/cyclin D1 (CDK4/cyclin D1): 16%
- Percentage kinase inhibition ROCK1 (ROCK1): 0%
Compound: CN(C)CC(O)CNC(=O)c1ccc(C#Cc2c(N)ncc3ccc(Cl)cc23)cc1 (stereo not drawn) [HSM1702]

- inhibition at 0.5 µM (TRKC): 0%
- Percentage kinase inhibition RAF1 (RAF1): 90%
Compound: Cc1ccc(C(=O)Nc2ccc(CN3CCN(C)CC3)c(C(F)(F)F)c2)cc1C#Cc1cc(N)nc2ccccc12 [HSN285]

- inhibition at 0.5 µM (IR): 9%
- inhibition at 0.5 µM (LRRK2): 0%
- inhibition at 0.5 µM (TRKC): 4%
- inhibition at 0.5 µM (LYN B): 35%
- inhibition at 0.5 µM (RET): 96%
- inhibition at 0.5 µM (ERK1): 0%
- inhibition at 0.5 µM (RSK2): 0%
- inhibition at 0.5 µM (DDR2): 81%
- inhibition at 0.5 µM (TGFBR2): 0%
- inhibition at 0.5 µM (IKKa/CHUK): 6%
- inhibition at 0.5 µM (CDK1/cyclin E): 0%
- inhibition at 0.5 µM (HCK): 18%
- inhibition at 0.5 µM (TYK2): 0%
- inhibition at 0.5 µM (CDK9/cyclin T2): 0%
- inhibition at 0.5 µM (KSR1): 0%
- inhibition at 0.5 µM (P38a/MAPK14): 5%
- inhibition at 0.5 µM (PIM1): 0%
- inhibition at 0.5 µM (BRK): 0%
- inhibition at 0.5 µM (JAK2): 0%
- inhibition at 0.5 µM (ERBB4/HER4): 7%
- inhibition at 0.5 µM (TAOK1): 0%
- inhibition at 0.5 µM (IGF1R): 0%
- inhibition at 0.5 µM (CSK): 0%
- inhibition at 0.5 µM (IRR/INSRR): 0%
- inhibition at 0.5 µM (PDK1/PDHK1): 1%
- inhibition at 0.5 µM (MST4): 0%
- inhibition at 0.5 µM (BLK): 30%
- inhibition at 0.5 µM (FAK/PTK2): 0%
- inhibition at 0.5 µM (CDK4/cyclin D1): 0%
- inhibition at 0.5 µM (ROCK1): 3%
Compound: COc1cc2nc(N)nc(C#Cc3cc(C(=O)Nc4ccc(CN5CCN(C)CC5)c(C(F)(F)F)c4)ccc3C)c2cc1OC [HSN325]

The remaining lines, values behind:

Compound: Cc1ccc(C(=O)Nc2ccc(CN3CCN(C)CC3)c(C(F)(F)F)c2)cc1C#Cc1cnc(N)c2ccccc12 [HSN334, 3-((1-aminoisoquinolin-4-yl)ethynyl)-4-methyl-N-(4-((4-methylpiperazin-1-yl)methyl)-3-(trifluoromethyl)phenyl)benzamide]
- inhibition at 0.5 µM (RET): 100%
- Percentage kinase inhibition RAF1 (RAF1): 96%

Compound: Cc1ccc(C(=O)Nc2ccc(CN3CCN(C)CC3)c(C(F)(F)F)c2)cc1C#Cc1c(N)ncc2ccc(Cl)cc12 [HSN286]
- inhibition at 0.5 µM (IR): 16%
- inhibition at 0.5 µM (LRRK2): 6%
- inhibition at 0.5 µM (TRKC): 91%
- inhibition at 0.5 µM (LYN B): 95%
- inhibition at 0.5 µM (RET): 100%
- inhibition at 0.5 µM (ERK1): 0%
- inhibition at 0.5 µM (RSK2): 0%
- inhibition at 0.5 µM (DDR2): 77%
- inhibition at 0.5 µM (TGFBR2): 15%
- inhibition at 0.5 µM (IKKa/CHUK): 36%
- Percentage kinase inhibition RAF1 (RAF1): 94%
- inhibition at 0.5 µM (CDK1/cyclin E): 0%
- inhibition at 0.5 µM (HCK): 95%
- inhibition at 0.5 µM (TYK2): 0%
- inhibition at 0.5 µM (CDK9/cyclin T2): 0%
- inhibition at 0.5 µM (KSR1): 0%
- inhibition at 0.5 µM (P38a/MAPK14): 81%
- inhibition at 0.5 µM (PIM1): 0%
- inhibition at 0.5 µM (BRK): 92%
- inhibition at 0.5 µM (JAK2): 67%
- inhibition at 0.5 µM (ERBB4/HER4): 71%
- inhibition at 0.5 µM (TAOK1): 0%
- inhibition at 0.5 µM (IGF1R): 0%
- inhibition at 0.5 µM (CSK): 93%
- inhibition at 0.5 µM (IRR/INSRR): 0%
- inhibition at 0.5 µM (PDK1/PDHK1): 0%
- inhibition at 0.5 µM (MST4): 0%
- inhibition at 0.5 µM (BLK): 100%
- inhibition at 0.5 µM (FAK/PTK2): 0%
- inhibition at 0.5 µM (CDK4/cyclin D1): 0%
- inhibition at 0.5 µM (ROCK1): 0%

Compound: Cc1ccc(C(=O)Nc2ccc(CN3CCN(C)CC3)c(C(F)(F)F)c2)cc1C#Cc1cnc(N)c2ncccc12 [HSN356, 3-((8-amino-1,7-naphthyridin-5-yl)ethynyl)-4-methyl-N-(4-((4-methylpiperazin-1-yl)methyl)-3-(trifluoromethyl)phenyl)benzamide]
- inhibition at 0.5 µM (TRKC): 59%
- inhibition at 0.5 µM (RET): 100%
- Percentage kinase inhibition RAF1 (RAF1): 100%

From patent US20250084039A1, “4-SUBSTITUTED AMINOISOQUINOLINE DERIVATIVES” (Purdue Research Foundation, priority 2016, published 2025)
